These results are taken from patent US4151300A, “Acetohydroxamic acids” (Laboratoire L. Lafon, priority 1976, dated 1979).

Series [1] concerns mice. The series is described as follows: interaction with oxotremorine (temperature, trembling, peripheral cholinergic symptoms). The class given is in vivo. The following applies: mice, i.p.
Series [2] deals with mice. The series is described as follows: interaction with reserpine (hypothermia, ptosis). The following applies: i.p. It is filed as in vivo.
Series [3] concerns rats. The series can be described thus: interaction with amphetamine (stereotypies in rats). It is filed as in vivo. As to conditions: rats, i.p. The procedure: (§1) The following text summarises a part of the results of the tests which were carried out with the products according to the invention, these products (unless otherwise stated) being administered intraperitoneally, in suspension in a gum solution (gum arabic), in a volume of 20 ml/kg in the case of mice and of 5 ml/kg in the case of rats.
30 minutes after the administration of CRL 40,373, amphetamine is injected intraperitoneally at a dose of 2 mg/kg.
Thirty minutes after the administration of CRL 40,385 the rats are given an intraperitoneal injection of 2 mg/kg of amphetamine (6 animals per dose).

The subject of series [4] is mice. The series can be described thus: toxicity (isolated mice, intraperitoneal). The class given is in vivo. The procedure:
as §1

Series [5] deals with rats. The series is described as follows: interaction with apomorphine (stereotype behaviour in rats). The class given is in vivo. The following applies: rats, i.p. Here is the method:
as §1
Batches of six rats are each given a subcutaneous injection of apomorphine (0.5 mg/kg) 30 minutes after the administration of CRL 40,373.
Batches of 6 rats are given a subcutaneous injection of 0.5 mg/kg of apomorphine 30 minutes after the administration of CRL 40,385.

The test system of series [6] is mice. The series can be described thus: spontaneous motility (actimeter). The class given is in vivo. As to conditions: mice. The procedure:
as §1
Thirty minutes after having been given CRL 40,373, the mice (6 per dose, 12 comparison animals) are placed in an actimeter, where their motility is recorded for half an hour.
Thirty minutes after having been given CRL 40,385, the mice are placed in actimeters where their motility is recorded for half an hour.

For series [7], the system named is mice. The series can be described thus: motility reduced by habituation to a cage (residual motility). It is filed as in vivo. The following applies: i.p. Here is the method:
as §1
Mice which have remained for 18 hours in the actimeters are given CRL 40,373. They are immediately replaced in their cages and, after a period of half an hour, their motility is recorded for 30 minutes (6 animals per dose, 12 comparison animals).
After remaining for 18 hours in the actimeters, the mice receive CRL 40,385. Immediately afterwards they are replaced in their cage and half an hour afterwards the recording of the motility starts and is continued for 30 minutes.

Series [8] has as its system mice. The series is described as follows: motility reduced by hypoxia treatment (motor recovery). The class given is in vivo. As to conditions: mice, i.p.
Series [9] deals with mice. The series is described as follows: inter-group aggressiveness (number of fights). The following applies: mice, i.p.; for aggressiveness: large/high dose. It is filed as in vivo. The procedure: as §1
After three weeks' residence in each of the halves of a cage divided by an opaque partition, the mice receive CRL 40,373 thirty minutes before being brought together by withdrawing the partition.
After 18 days' residence on either side of a partition separating their cage in the middle, groups of 3 mice receive CRL 40,385 and are brought together half an hour later by withdrawing the partition, and the number of fights which take place in the course of 15 minutes is noted.

The subject of series [10] is man. The series is described as follows: clinical use in man. The class given is in vivo.
For series [11], the system named is central nervous system. The series is described as follows: psychopharmacological study / behaviour. It is filed as in vivo, mice.
The test system of series [12] is mice. The series can be described thus: traction (motor incoordination). The class given is in vivo, mice (EVIC CEBA strain). The following applies: high dose.
Series [13] concerns mice. The series can be described thus: four-plate test. The class given is in vivo, mice (EVIC CEBA strain). Here is the method:
as §1
The test is carried out on batches of 10 sensitive mice (EVIC CEBA strain), 30 minutes after the administration of CRL 40,373.
Batches of 10 mice are subjected to the test thirty minutes after having received CRL 40,385.

Consider `O=C(CNC(=O)C(c1ccccc1)c1ccccc1)NO` [CRL 40,400, α-(Benzhydrylcarboxamido)-acetohydroxamic acid], for which the “stereotypies induced by oxotremorine” value in series [1] is “does not modify the stereotypies”. The “stereotypies induced by reserpine” value in series [2] is “does not modify the stereotypies”. Besides, in [3], the amphetamine-induced stereotypies result was “does not modify the stereotypies induced in rats by apomorphine and amphetamine”. Besides, in series [4] (isolated mice, i.p., 128, 256, 512 and 1,024 mg/kg), the mortality entry is reported as “does not cause any mortality whatsoever”. For the same compound, the apomorphine-induced stereotypies entry in series [5] is listed as “does not modify the stereotypies induced in rats by apomorphine”. For the same compound, the motility entry in series [6] is “acts on the motility of mice”.

With `O=C(CC(=O)N1c2ccccc2CCc2ccccc21)NO` [CRL 40,471, 5-(10,11-Dihydro-dibenz[b,f]azepino)-carbonylacetohydroxamic acid], in series [2], the reserpine-induced hypothermia entry is “moderate antagonism against reserpine-induced hypothermia”. Besides, the amphetamine-induced stereotypies entry in [3] was “does not alter the stereotypies induced by amphetamine”. Also, the “motility reduced by habituation to the cage” value in [7] is “does not cause a resumption of the motor activity in mice habituated to their cage”. The “LD-O (maximum non-lethal dose)” value in [4] (mouse, in vivo, ip) is “greater than 1,024 mg/kg”. The figures for the “motor recovery after hypoxia/anoxia by pressure reduction” value in series [8] and in series [8] (512 mg/kg) were “does not improve the motor recovery in mice” and “motor recovery comparable to that of the comparison mice”, respectively. In addition, the apomorphine-induced stereotypies entry in series [5] was “does not alter the stereotypies induced by amphetamine and by apomorphine”. Besides, in series [9], the inter-group aggressiveness entry is recorded as “an effect of the anti-aggressive type appears to manifest itself in the absence of any hypomotility”. Besides, the aggressiveness result in series [9] was “reduces the intra-specific aggressiveness in mice”. In [10] (tablet 0.250 mg, 2 tablets per day), the clinical result is reported as “good results clinically as a sedative”. Moreover, the “psychopharmacological profile / conclusion” value in series [11] (mouse, in vivo) is given as “sedative activity”. The spontaneous motility result in series [6] (i.p., 512 mg/kg) is given as “very greatly reduces the spontaneous motility of mice”.

Consider `COc1ccc(C[S+]([O-])CC(=O)NO)cc1` (stereo not drawn) [CRL 40,498, p-Methoxybenzyl-sulphinyl-acetohydroxamic acid], for which, in [1], the “temperature (oxotremorine-induced hypothermia)” value is on record as “without alteration of the other hypothermia studied”. In series [2], the reserpine-induced hypothermia entry was “partial antagonism to reserpine-induced hypothermia”. Further, in series [2], the reserpine-induced ptosis entry was “without alteration of the ptosis”. Also, in [12], the motor incapacity result is “without motor incapacity”. The “number of incorrect moves (four-plate test)” value in series [13] (gastric administration, 512 to 32 mg/kg (and possibly less)) is listed as “an increase in the number of incorrect moves”; in [13] (i.p., 512 to 2 mg/kg) it was “an increase in the number of incorrect moves”. Moreover, in series [4] (mice, i.p.), the “LD-O (maximum non-lethal dose)” value is recorded as “greater than 1,204 mg/kg”. Moreover, in series [4] (mouse, in vivo, ip, 256 mg/kg), the symptoms / behaviour entry is “sedation, depressed respiration and reaction to the touch”. The “motor recovery after hypoxia/anoxia by pressure reduction” value in series [8] was “a discrete stimulant effect on the motility”. Further, the aggressiveness result in [9] is on record as “reduction in motility, in aggressiveness”. Moreover, the clinical result in series [10] (pill 100 mg, 2 pills per day) was “good results clinically as an anxiolytic agent”. Further, in series [11] (high dose), the “body temperature effect (product alone)” value was “hypothermia”. For the same compound, the “sedation / sedative effect” value in series [11] (high dose(s)) is given as “sedation”. In [11] (mice, high dose), the reactivity result is “reduction in motility, in aggressiveness and in reactivity”. Further, in series [6] (high dose), the spontaneous motility result is listed as “reduction in motility”.
